Measured values taken from US6605606B1, “Solid forms of tin ethyl etiopurpurin and processes for producing such forms” (Miravant Pharmaceuticals, Inc., priority 2000, dated 2003).

Tests used:
[1] = Light stability of SnET2 solid forms under visible light irradiation (XRPD and HPLC); type: physicochemical; details: for XRPD Result / Impurity Levels by HPLC Peak 1 (photooxidized product) / Impurity Levels by HPLC Peak 2 / Impurity Levels by HPLC Peak 3: solid
Description: Comparative stability studies were performed on crystalline Form I, crystalline Form II, disordered Form II and the amorphous form. Light stability studies were carried out in a closed, black 30×16×12 inch cabinet containing two 24-inch, 20-watt fluorescent bulbs as the light source. The samples were placed approximately 10 inches from the bulbs. Each sample consisted of approximately 30-mg of SnET2 in a 1-dram vial. Samples were removed at the time intervals indicated in Table 11, analyzed by XRPD and HPLC.

[2] = Relative thermodynamic stability of crystalline forms (slurry interconversion, XRPD); type: physicochemical; details: slurrying in dichloromethane, acetone and mixtures, ambient or 50° C.
Excerpt: Unsolvated, anhydrous, polymorphic forms of a compound differ in their free energies. A set of polymorphs may be ranked in order of thermodynamic stability under a given set of pressure and temperature conditions. […] Production of the stable form is said to occur under thermodynamic conditions. […] Phys. Chem. 22:306 (1897)]. […] Kinetic and thermodynamic conditions differ in the amount of energy utilized. While the absolute amount depends on the compound in question, relatively speaking, kinetic conditions involve lower temperatures and shorter reaction times while thermodynamic conditions involve higher temperatures and longer reaction times.
Under subdued lighting, a slurry containing a 1:1 mixture of SnET2 crystalline Form I and SnET2 crystalline Form II (100-200 mg each) in 1-3 mL of a solvent, listed in Table 13 below, was agitated in a tightly-capped tube at ambient temperature or at 50° C. The undissolved solid was collected by filtration and found, by XRPD analysis, to be crystalline Form II.

[3] = visible light (two 20-watt fluorescent bulbs, approx. 10 inches), 0 days
[4] = visible light irradiation, 0 days
[5] = visible light irradiation, 2 days
[6] = visible light irradiation, 4 days
[7] = visible light irradiation, 6 days
[8] = visible light irradiation, 8 days
[9] = visible light irradiation, 19 days
[10] = visible light irradiation, 29 days

| XRPD Result [1, 3] | Impurity Levels by HPLC Peak 1 (photooxidized product) [1, 4] | Impurity Levels by HPLC Peak 2 [1, 4] | Impurity Levels by HPLC Peak 3 [1, 4] | Impurity Levels by HPLC Peak 1 (photooxidized product) [1, 5] | Impurity Levels by HPLC Peak 2 [1, 5] | Impurity Levels by HPLC Peak 3 [1, 5] | XRPD Result [1, 5] | Impurity Levels by HPLC Peak 1 (photooxidized product) [1, 6] | Impurity Levels by HPLC Peak 2 [1, 6] | Impurity Levels by HPLC Peak 3 [1, 6] | XRPD Result [1, 6] | Impurity Levels by HPLC Peak 1 (photooxidized product) [1, 7] | Impurity Levels by HPLC Peak 2 [1, 7] | Impurity Levels by HPLC Peak 3 [1, 7] | XRPD Result [1, 7] | Impurity Levels by HPLC Peak 1 (photooxidized product) [1, 8] | Impurity Levels by HPLC Peak 2 [1, 8] | Impurity Levels by HPLC Peak 3 [1, 8] | XRPD Result [1, 8] | Substance | other results |
| --- | --- | --- | --- | --- | --- | --- | --- | --- | --- | --- | --- | --- | --- | --- | --- | --- | --- | --- | --- | --- | --- |
| Amorphous | 1.62 | 0.70 | 0.00 | 6.60 | 0.71 | 0.03 | Amorphous | 9.78 | 0.73 | 0.15 | Amorphous | 1.84 | 0.11 | 0.23 | Amorphous | 12.66 | 0.70 | 0.27 | Amorphous | Tin ethyl etiopurpurin [Amorphous] | rate of photoproduct formation by HPLC ([1]; exposed to visible light, compared with the other solid forms): produced more rapidly in the amorphous form than any other form; Impurity Levels by HPLC Peak 1 (photooxidized product) [1, 9]: 14.13; Impurity Levels by HPLC Peak 2 [1, 9]: 0.73; Impurity Levels by HPLC Peak 3 [1, 9]: 0.38; XRPD Result [1, 9]: Amorphous; Impurity Levels by HPLC Peak 1 (photooxidized product) [1, 10]: 18.72; Impurity Levels by HPLC Peak 2 [1, 10]: 0.76; Impurity Levels by HPLC Peak 3 [1, 10]: 0.38; XRPD Result [1, 10]: Amorphous |
| Crystalline | 0.00 | 0.23 | 0.00 | 0.44 | 0.23 | 0.04 | Crystalline | 0.56 | 0.24 | 0.09 | Crystalline | 0.82 | 0.21 | 0.10 | Crystaliine | 0.96 | 0.21 | 0.15 | Crystalline | Tin ethyl etiopurpurin [Crystalline Form II] | Impurity Levels by HPLC Peak 1 (photooxidized product) [1, 9]: 1.12; Impurity Levels by HPLC Peak 2 [1, 9]: 0.18; Impurity Levels by HPLC Peak 3 [1, 9]: 0.14; XRPD Result [1, 9]: Crystalline; Impurity Levels by HPLC Peak 1 (photooxidized product) [1, 10]: 1.68; Impurity Levels by HPLC Peak 2 [1, 10]: 0.17; Impurity Levels by HPLC Peak 3 [1, 10]: 0.11; XRPD Result [1, 10]: Crystalline; relative (thermodynamic) stability of crystalline forms [2]: thermodynamically more stable form; relative (thermodynamic) stability of crystalline forms ([2]; listed as crystalline Form II): more stable than crystalline Form I |
| Disordered FII | 0.65 | 0.10 | 0.19 | 1.24 | 0.13 | 0.19 | Disordered FII | 1.98 | 0.09 | 0.27 | Disordered FII | 2.51 | 0.11 | 0.28 | Disordered FII | 1.77 | 0.12 | 0.28 | Disordered FII | Tin ethyl etiopurpurin [Disordered Form II] | Impurity Levels by HPLC Peak 1 (photooxidized product) [1, 9]: 3.54; Impurity Levels by HPLC Peak 2 [1, 9]: 0.06; Impurity Levels by HPLC Peak 3 [1, 9]: 0.32; XRPD Result [1, 9]: Disordered FII; Impurity Levels by HPLC Peak 1 (photooxidized product) [1, 10]: 4.92; Impurity Levels by HPLC Peak 2 [1, 10]: 0.10; Impurity Levels by HPLC Peak 3 [1, 10]: 0.51; XRPD Result [1, 10]: Disordered FII |
| Crystalline | 0.20 | 0.15 | 0.0 | 0.89 | 0.16 | 0.0 | Crystalline | 9.61 | 0.84 | 0.0 | Crystalline | 2.16 | 0.14 | 0.09 | Crystalline | 1.87 | 0.15 | 0.13 | Crystalline | Tin ethyl etiopurpurin [Crystalline Form I] | Impurity Levels by HPLC Peak 1 (photooxidized product) [1, 9]: 2.39; Impurity Levels by HPLC Peak 2 [1, 9]: 0.34; Impurity Levels by HPLC Peak 3 [1, 9]: 0.17; XRPD Result [1, 9]: Crystalline; Impurity Levels by HPLC Peak 1 (photooxidized product) [1, 10]: 4.47; Impurity Levels by HPLC Peak 2 [1, 10]: 0.11; Impurity Levels by HPLC Peak 3 [1, 10]: 0.21; XRPD Result [1, 10]: Crystalline |
